In patent publication US9261498B2, “Biomarker for sensitivity to mTOR inhibitor therapy in kidney cancer” (The Regents of the University of California, priority 2005, dated 2016):

System: SN12C-CSCG and ACHN-CSCG xenograft tumors
Test: Subcutaneous xenograft tumor growth, parental tumors
Format: in vivo, SCID mice
Settings: 0.1 mg/kg CCI-779 daily
Experimental: FIGS. 1A-1E. Effects of VHL knockdown on sensitivity to CCI-779. (a) Immunoblotting of lysates derived from shRNA and control (empty vector, V) in SN12C, using antibodies against VHL (both isoforms detected), HIF-1α, HIF-2α, GLUT-1, CA-IX and β-Actin (as a loading control). (b) SN12C-CSCG and SN12C-VHLshRNA cells (1×10^5) were cultured in 10% serum rich media, in the presence of vehicle, 1 or 10 nM of CCI-779 for 5 days. Cell growth was measured by cell counts (n=3). […] (c) SN12C-CSCG (C1) and SN12C-CSCG shVHL RNA (C2) cells were injected into SCID mice at a dose of 1×10^6 cells per mouse (n=30). […] Phosphorylated-S6 protein in SN12C-CSCG and SN12C-VHL shRNA xenograft tumors treated with vehicle or 0.1 mg/kg of CCI-779 was measured by immunoblot C3 and C4). […]
For in vitro experiments, cells (5×10^4) were plated and treated with 1 and 10 nM CCI-779 (kind gift of J. Gibbons, Wyeth) or vehicle (ethanol). On day 5-post treatment, cells were trypsinized, resuspended in DMEM with 10% FBS and counted using the VI CELL counter (Beckman Coulter), according to the manufacturer's instructions. […] In vivo tumorigenicity was measured by injection of 5×10^5 SN12C-CSCG, ACHN-CSCG, SN12C-CSCG-VHLshRNAi, ACHN-CSCG-VHLshRNAi, SN12C-CSCG-VHLshRNAi-pBABE, SN12C-CSCG-VHLshRNAi-pBABE-HA-HIF-2α (P405A; P531A) cells in 100 μl of Matrigel (Collaborative Biomedical) subcutaneously into the flanks of SCID mice. […]

CO[C@H]1C[C@@H]2CC[C@@H](C)[C@@](O)(O2)C(=O)C(=O)N2CCCC[C@H]2C(=O)O[C@H]([C@H](C)C[C@@H]2CC[C@@H](OC(=O)C(C)(CO)CO)[C@H](OC)C2)CC(=O)[C@H](C)/C=C(\C)[C@@H](O)[C@@H](OC)C(=O)[C@H](C)C[C@H](C)/C=C/C=C/C=C/1C [CCI-779]
growth of the parental tumors: no effect
